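Test compounds were applied to cells in 96-well plates for 48 hours at 5 doses. Abbreviation: GI50, concentration required for 50% inhibition of growth. TGI: total growth inhibition.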
Experiments:
Test in all cases: NCI tumour cell line growth inhibition, 48 h
MALME-3M melanoma = system: MALME-3M melanoma
SK-MEL-28 melanoma = system: SK-MEL-28 melanoma
SW-620 colon = system: SW-620 colon
COLO 205 colon = system: COLO 205 colon
HOP-92 NSCLC = system: HOP-92 NSCLC
SK-MEL-2 melanoma = system: SK-MEL-2 melanoma
SNB-75 CNS = system: SNB-75 CNS
RPMI-8226 leukemia = system: RPMI-8226 leukemia
CAKI-1 renal = system: CAKI-1 renal
786-0 renal = system: 786-0 renal
UACC-62 melanoma = system: UACC-62 melanoma
SF-295 CNS = system: SF-295 CNS
A498 renal = system: A498 renal
NCI-H226 lung = system: NCI-H226 lung
HS 578T breast = system: HS 578T breast
NCI-H23 lung = system: NCI-H23 lung
LOX IMVI melanoma = system: LOX IMVI melanoma
HCT-15 colon = system: HCT-15 colon
UACC-257 melanoma = system: UACC-257 melanoma
SF-539 CNS = system: SF-539 CNS
HCC-2998 colon = system: HCC-2998 colon
MDA-MB-435 = system: MDA-MB-435
OVCAR-8 ovarian = system: OVCAR-8 ovarian
HCT-116 colon = system: HCT-116 colon
SF-268 CNS = system: SF-268 CNS
U251 CNS = system: U251 CNS
MDA-MB-231 breast = system: MDA-MB-231 breast
IGROV1 ovarian = system: IGROV1 ovarian
OVCAR-3 ovarian = system: OVCAR-3 ovarian
SN12C renal = system: SN12C renal
SK-OV-3 ovarian = system: SK-OV-3 ovarian
NCI-H460 lung = system: NCI-H460 lung
HOP-62 NSCLC = system: HOP-62 NSCLC
T-47D breast = system: T-47D breast
NCI/ADR-RES ovarian = system: NCI/ADR-RES ovarian
HL-60(TB) leukemia = system: HL-60(TB) leukemia
A549 NSCLC = system: A549 NSCLC
SNB-19 CNS = system: SNB-19 CNS
RXF 393 renal = system: RXF 393 renal
TK-10 renal = system: TK-10 renal
ACHN renal = system: ACHN renal
EKVX NSCLC = system: EKVX NSCLC
OVCAR-4 ovarian = system: OVCAR-4 ovarian
NCI-H522 lung = system: NCI-H522 lung
M14 melanoma = system: M14 melanoma
PC-3 prostate = system: PC-3 prostate
MOLT-4 leukemia = system: MOLT-4 leukemia
CCRF-CEM leukemia = system: CCRF-CEM leukemia
OVCAR-5 ovarian = system: OVCAR-5 ovarian
KM12 colon = system: KM12 colon
SK-MEL-5 melanoma = system: SK-MEL-5 melanoma
K-562 leukemia = system: K-562 leukemia
HT29 colon = system: HT29 colon
SR leukemia = system: SR leukemia
MCF7 breast = system: MCF7 breast
DU-145 prostate = system: DU-145 prostate
BT-549 breast = system: BT-549 breast
UO-31 renal = system: UO-31 renal

SMILES: NC(=O)c1c(Br)n(C2OC(CO)C(O)C2O)c2ncnc(N)c12 (stereo unspecified)
- GI50 (MALME-3M melanoma): 1.47 µM
- TGI (MALME-3M melanoma): 6.34 µM
- GI50 (SK-MEL-28 melanoma): 3.02 µM
- TGI (SK-MEL-28 melanoma): 13.8 µM
- GI50 (SW-620 colon): 0.545 µM
- TGI (SW-620 colon): 9.87 µM
- GI50 (COLO 205 colon): 1.45 µM
- TGI (COLO 205 colon): 6.07 µM
- GI50 (HOP-92 NSCLC): 0.45 µM
- TGI (HOP-92 NSCLC): 7.08 µM
- GI50 (SK-MEL-2 melanoma): 1.82 µM
- TGI (SK-MEL-2 melanoma): 5.62 µM
- GI50 (SNB-75 CNS): 1.92 µM
- TGI (SNB-75 CNS): 18 µM
- GI50 (RPMI-8226 leukemia): 1.87 µM
- TGI (RPMI-8226 leukemia): 7.51 µM
- GI50 (CAKI-1 renal): 0.369 µM
- TGI (CAKI-1 renal): 2.43 µM
- GI50 (786-0 renal): 3.04 µM
- TGI (786-0 renal): 41.9 µM
- GI50 (UACC-62 melanoma): 1.63 µM
- TGI (UACC-62 melanoma): 3.83 µM
- GI50 (SF-295 CNS): 2.78 µM
- TGI (SF-295 CNS): 18.7 µM
- GI50 (A498 renal): 3.09 µM
- TGI (A498 renal): 15.6 µM
- GI50 (NCI-H226 lung): 4.78 µM
- TGI (NCI-H226 lung): 57.6 µM
- GI50 (HS 578T breast): 1.48 µM
- TGI (HS 578T breast): 9.36 µM
- GI50 (NCI-H23 lung): 2.15 µM
- TGI (NCI-H23 lung): 13 µM
- GI50 (LOX IMVI melanoma): 0.684 µM
- TGI (LOX IMVI melanoma): 6.09 µM
- GI50 (HCT-15 colon): 0.427 µM
- TGI (HCT-15 colon): 7.03 µM
- GI50 (UACC-257 melanoma): 2.99 µM
- TGI (UACC-257 melanoma): 18.4 µM
- GI50 (SF-539 CNS): 2.43 µM
- TGI (SF-539 CNS): 8.73 µM
- GI50 (HCC-2998 colon): 1.71 µM
- TGI (HCC-2998 colon): 13.2 µM
- GI50 (MDA-MB-435): 1.73 µM
- TGI (MDA-MB-435): 7.68 µM
- GI50 (OVCAR-8 ovarian): 0.763 µM
- TGI (OVCAR-8 ovarian): 12.3 µM
- GI50 (HCT-116 colon): 0.71 µM
- TGI (HCT-116 colon): > 53.4 µM
- GI50 (SF-268 CNS): 2.49 µM
- TGI (SF-268 CNS): 13.4 µM
- GI50 (U251 CNS): 2.92 µM
- TGI (U251 CNS): > 86.4 µM
- GI50 (MDA-MB-231 breast): 3.55 µM
- TGI (MDA-MB-231 breast): 29.1 µM
- GI50 (IGROV1 ovarian): 0.609 µM
- TGI (IGROV1 ovarian): 3.95 µM
- GI50 (OVCAR-3 ovarian): 1.24 µM
- TGI (OVCAR-3 ovarian): 5.59 µM
- GI50 (SN12C renal): 1.61 µM
- TGI (SN12C renal): 12.9 µM
- GI50 (SK-OV-3 ovarian): 1.05 µM
- TGI (SK-OV-3 ovarian): 9.95 µM
- GI50 (NCI-H460 lung): 1.8 µM
- TGI (NCI-H460 lung): 12.5 µM
- GI50 (HOP-62 NSCLC): 2.86 µM
- TGI (HOP-62 NSCLC): 25.3 µM
- GI50 (T-47D breast): 0.132 µM
- TGI (T-47D breast): 2.88 µM
- GI50 (NCI/ADR-RES ovarian): 1.34 µM
- TGI (NCI/ADR-RES ovarian): 12.5 µM
- GI50 (HL-60(TB) leukemia): 0.702 µM
- TGI (HL-60(TB) leukemia): 4.11 µM
- GI50 (A549 NSCLC): 1.97 µM
- TGI (A549 NSCLC): 21.4 µM
- GI50 (SNB-19 CNS): 5.16 µM
- TGI (SNB-19 CNS): 59.8 µM
- GI50 (RXF 393 renal): 1.37 µM
- TGI (RXF 393 renal): 12.9 µM
- GI50 (TK-10 renal): 0.839 µM
- TGI (TK-10 renal): 13.7 µM
- GI50 (ACHN renal): 0.749 µM
- TGI (ACHN renal): 10.4 µM
- GI50 (EKVX NSCLC): 4.31 µM
- TGI (EKVX NSCLC): 59.8 µM
- GI50 (OVCAR-4 ovarian): 1.14 µM
- TGI (OVCAR-4 ovarian): 15.3 µM
- GI50 (NCI-H522 lung): 2.54 µM
- TGI (NCI-H522 lung): 11 µM
- GI50 (M14 melanoma): 1.19 µM
- TGI (M14 melanoma): 8.76 µM
- GI50 (PC-3 prostate): 0.593 µM
- TGI (PC-3 prostate): 7.57 µM
- GI50 (MOLT-4 leukemia): 0.36 µM
- TGI (MOLT-4 leukemia): 3.46 µM
- GI50 (CCRF-CEM leukemia): 0.8 µM
- TGI (CCRF-CEM leukemia): 6.37 µM
- GI50 (OVCAR-5 ovarian): 1.39 µM
- TGI (OVCAR-5 ovarian): 45.5 µM
- GI50 (KM12 colon): 1.91 µM
- TGI (KM12 colon): 12.3 µM
- GI50 (SK-MEL-5 melanoma): 2.65 µM
- TGI (SK-MEL-5 melanoma): 9.85 µM
- GI50 (K-562 leukemia): 1.43 µM
- TGI (K-562 leukemia): > 60.4 µM
- GI50 (HT29 colon): 1.03 µM
- TGI (HT29 colon): 32 µM
- GI50 (SR leukemia): 1.11 µM
- TGI (SR leukemia): 4.9 µM
- GI50 (MCF7 breast): 0.246 µM
- TGI (MCF7 breast): 2.72 µM
- GI50 (DU-145 prostate): 0.544 µM
- TGI (DU-145 prostate): 8.86 µM
- GI50 (BT-549 breast): 1.08 µM
- TGI (BT-549 breast): 11.2 µM
- GI50 (UO-31 renal): 2.16 µM
- TGI (UO-31 renal): 13.6 µM

Reference: PubChem BioAssay (NCI)
